Laboratory results taken from the kinase profiling compilation of Christmann-Franck et al. (2016).

Tests used:
Test in all cases: radiometric filter-binding kinase assay
FGFR1 (human) = FGFR1 (human) (UniProt P11362)
[1] = system: AKT2 (human), P31751 [S474D]
LCK (mouse) = conditions: accession and sequence are those of the human protein
PIM2 (human) = PIM2 (human) (UniProt Q9P1W9); conditions: compound 1.0 µM
PHKG1 (human) = PHKG1 (human) (UniProt Q16816)
NEK2 (human) = NEK2 (human) (UniProt P51955)
NEK6 (human) = NEK6 (human) (UniProt Q9HC98)
EPHA2 (human) = EPHA2 (human) (UniProt P29317)
[2] = system: RPS6KB1 (human), P23443 [T412E]
MKNK1 (human) = MKNK1 (human) (UniProt Q9BUB5)
SYK (human) = SYK (human) (UniProt P43405)
TBK1 (human) = TBK1 (human) (UniProt Q9UHD2)
MAPK11 (human) = MAPK11 (human) (UniProt Q15759)
[3] = target: STK11 CAB39 STRADA (human) (UniProt Q9Y376+Q7RTN6+Q15831)
ROCK2 (rat) = conditions: accession and sequence are those of the human protein
MAP3K9 (human) = MAP3K9 (human) (UniProt P80192)
SRPK1 (human) = SRPK1 (human) (UniProt Q96SB4)
TTK (human) = TTK (human) (UniProt P33981)

Sequence of TBK1 (human) (Q9UHD2 whole entry, looked up): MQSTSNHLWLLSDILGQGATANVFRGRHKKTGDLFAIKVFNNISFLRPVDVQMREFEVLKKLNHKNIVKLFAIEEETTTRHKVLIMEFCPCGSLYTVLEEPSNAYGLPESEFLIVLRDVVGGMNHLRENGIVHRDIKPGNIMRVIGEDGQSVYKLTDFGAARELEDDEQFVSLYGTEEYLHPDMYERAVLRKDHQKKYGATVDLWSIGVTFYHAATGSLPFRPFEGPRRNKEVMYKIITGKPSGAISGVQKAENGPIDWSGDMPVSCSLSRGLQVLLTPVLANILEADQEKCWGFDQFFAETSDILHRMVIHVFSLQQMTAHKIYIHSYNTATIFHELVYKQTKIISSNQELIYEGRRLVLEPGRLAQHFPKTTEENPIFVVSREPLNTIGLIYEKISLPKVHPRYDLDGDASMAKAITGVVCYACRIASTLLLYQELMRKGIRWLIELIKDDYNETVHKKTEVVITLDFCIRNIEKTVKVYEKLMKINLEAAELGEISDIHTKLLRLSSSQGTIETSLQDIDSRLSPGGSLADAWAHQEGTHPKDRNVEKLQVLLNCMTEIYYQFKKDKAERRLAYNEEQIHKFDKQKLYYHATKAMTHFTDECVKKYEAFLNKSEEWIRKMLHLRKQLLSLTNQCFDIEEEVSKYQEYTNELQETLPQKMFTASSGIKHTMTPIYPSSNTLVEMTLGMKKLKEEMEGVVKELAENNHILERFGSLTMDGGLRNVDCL
Sequence of MKNK1 (human) (Q9BUB5 whole entry, looked up): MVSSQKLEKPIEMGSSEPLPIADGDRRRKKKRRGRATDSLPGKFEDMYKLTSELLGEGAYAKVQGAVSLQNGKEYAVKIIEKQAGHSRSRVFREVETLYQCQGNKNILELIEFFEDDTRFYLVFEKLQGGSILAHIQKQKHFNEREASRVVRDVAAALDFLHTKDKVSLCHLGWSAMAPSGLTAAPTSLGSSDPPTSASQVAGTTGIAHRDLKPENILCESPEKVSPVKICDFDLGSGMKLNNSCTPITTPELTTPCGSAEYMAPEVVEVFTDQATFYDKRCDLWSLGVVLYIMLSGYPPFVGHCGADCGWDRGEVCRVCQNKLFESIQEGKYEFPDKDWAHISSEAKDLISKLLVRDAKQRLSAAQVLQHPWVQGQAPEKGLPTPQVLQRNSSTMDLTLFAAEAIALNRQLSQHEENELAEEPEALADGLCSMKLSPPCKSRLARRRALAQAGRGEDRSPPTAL
Sequence of SRPK1 (human) (Q96SB4 whole entry, looked up): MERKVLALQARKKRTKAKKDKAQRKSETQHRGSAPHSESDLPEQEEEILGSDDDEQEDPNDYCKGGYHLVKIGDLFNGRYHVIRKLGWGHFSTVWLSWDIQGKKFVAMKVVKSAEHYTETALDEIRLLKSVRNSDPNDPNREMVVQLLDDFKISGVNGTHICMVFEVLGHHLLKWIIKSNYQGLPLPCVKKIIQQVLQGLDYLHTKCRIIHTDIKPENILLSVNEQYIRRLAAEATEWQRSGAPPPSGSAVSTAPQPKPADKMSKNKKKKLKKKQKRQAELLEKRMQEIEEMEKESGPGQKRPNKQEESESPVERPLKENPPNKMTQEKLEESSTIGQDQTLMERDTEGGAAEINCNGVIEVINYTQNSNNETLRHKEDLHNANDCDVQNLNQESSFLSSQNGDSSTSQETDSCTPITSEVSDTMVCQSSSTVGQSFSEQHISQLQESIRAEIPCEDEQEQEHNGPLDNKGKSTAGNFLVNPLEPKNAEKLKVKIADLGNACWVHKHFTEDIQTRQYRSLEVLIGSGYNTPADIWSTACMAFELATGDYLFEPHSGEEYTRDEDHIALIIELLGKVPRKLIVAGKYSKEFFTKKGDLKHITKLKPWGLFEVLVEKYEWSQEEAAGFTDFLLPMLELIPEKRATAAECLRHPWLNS
Sequence of AKT2 (human), P31751 [S474D] (P31751 whole entry S474D, looked up): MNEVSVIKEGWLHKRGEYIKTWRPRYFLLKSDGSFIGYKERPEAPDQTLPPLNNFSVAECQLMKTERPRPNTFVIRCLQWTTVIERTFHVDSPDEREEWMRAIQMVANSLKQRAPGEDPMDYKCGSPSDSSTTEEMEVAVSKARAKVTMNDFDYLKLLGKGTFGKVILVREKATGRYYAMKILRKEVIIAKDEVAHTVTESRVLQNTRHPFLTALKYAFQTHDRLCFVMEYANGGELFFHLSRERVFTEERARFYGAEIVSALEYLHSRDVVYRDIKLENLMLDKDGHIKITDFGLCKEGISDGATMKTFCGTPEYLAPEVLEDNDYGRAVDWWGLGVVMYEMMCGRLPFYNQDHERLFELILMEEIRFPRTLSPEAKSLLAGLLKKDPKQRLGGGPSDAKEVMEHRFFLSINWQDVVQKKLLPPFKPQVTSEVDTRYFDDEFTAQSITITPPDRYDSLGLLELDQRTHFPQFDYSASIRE
Sequence of RPS6KB1 (human), P23443 [T412E] (P23443 whole entry T412E, looked up): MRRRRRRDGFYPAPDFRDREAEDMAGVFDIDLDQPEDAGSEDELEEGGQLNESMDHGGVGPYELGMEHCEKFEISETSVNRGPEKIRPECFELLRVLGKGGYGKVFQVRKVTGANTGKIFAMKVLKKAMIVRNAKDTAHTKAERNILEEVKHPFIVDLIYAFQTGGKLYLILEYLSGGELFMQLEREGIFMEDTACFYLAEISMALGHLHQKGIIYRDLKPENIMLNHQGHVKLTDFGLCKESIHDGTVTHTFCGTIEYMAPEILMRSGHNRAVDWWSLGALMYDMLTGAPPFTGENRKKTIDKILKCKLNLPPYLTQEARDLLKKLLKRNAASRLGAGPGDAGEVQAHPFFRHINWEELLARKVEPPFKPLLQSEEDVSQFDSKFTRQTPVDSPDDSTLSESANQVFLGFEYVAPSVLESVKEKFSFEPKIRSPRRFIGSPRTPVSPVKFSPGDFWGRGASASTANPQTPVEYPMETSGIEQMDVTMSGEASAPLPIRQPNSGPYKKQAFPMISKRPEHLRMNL
Sequence of PHKG1 (human) (Q16816 whole entry, looked up): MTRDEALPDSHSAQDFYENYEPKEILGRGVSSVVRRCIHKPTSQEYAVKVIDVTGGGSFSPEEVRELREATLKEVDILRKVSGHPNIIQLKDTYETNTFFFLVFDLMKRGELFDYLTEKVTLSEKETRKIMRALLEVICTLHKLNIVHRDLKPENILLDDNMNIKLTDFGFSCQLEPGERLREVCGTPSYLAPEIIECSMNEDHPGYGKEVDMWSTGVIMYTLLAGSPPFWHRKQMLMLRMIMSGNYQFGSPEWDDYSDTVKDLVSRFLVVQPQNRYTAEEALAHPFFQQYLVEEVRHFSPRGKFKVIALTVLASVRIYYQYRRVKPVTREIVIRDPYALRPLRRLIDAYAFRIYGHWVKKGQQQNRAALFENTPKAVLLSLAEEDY
Sequence of MAP3K9 (human) (P80192 whole entry, looked up): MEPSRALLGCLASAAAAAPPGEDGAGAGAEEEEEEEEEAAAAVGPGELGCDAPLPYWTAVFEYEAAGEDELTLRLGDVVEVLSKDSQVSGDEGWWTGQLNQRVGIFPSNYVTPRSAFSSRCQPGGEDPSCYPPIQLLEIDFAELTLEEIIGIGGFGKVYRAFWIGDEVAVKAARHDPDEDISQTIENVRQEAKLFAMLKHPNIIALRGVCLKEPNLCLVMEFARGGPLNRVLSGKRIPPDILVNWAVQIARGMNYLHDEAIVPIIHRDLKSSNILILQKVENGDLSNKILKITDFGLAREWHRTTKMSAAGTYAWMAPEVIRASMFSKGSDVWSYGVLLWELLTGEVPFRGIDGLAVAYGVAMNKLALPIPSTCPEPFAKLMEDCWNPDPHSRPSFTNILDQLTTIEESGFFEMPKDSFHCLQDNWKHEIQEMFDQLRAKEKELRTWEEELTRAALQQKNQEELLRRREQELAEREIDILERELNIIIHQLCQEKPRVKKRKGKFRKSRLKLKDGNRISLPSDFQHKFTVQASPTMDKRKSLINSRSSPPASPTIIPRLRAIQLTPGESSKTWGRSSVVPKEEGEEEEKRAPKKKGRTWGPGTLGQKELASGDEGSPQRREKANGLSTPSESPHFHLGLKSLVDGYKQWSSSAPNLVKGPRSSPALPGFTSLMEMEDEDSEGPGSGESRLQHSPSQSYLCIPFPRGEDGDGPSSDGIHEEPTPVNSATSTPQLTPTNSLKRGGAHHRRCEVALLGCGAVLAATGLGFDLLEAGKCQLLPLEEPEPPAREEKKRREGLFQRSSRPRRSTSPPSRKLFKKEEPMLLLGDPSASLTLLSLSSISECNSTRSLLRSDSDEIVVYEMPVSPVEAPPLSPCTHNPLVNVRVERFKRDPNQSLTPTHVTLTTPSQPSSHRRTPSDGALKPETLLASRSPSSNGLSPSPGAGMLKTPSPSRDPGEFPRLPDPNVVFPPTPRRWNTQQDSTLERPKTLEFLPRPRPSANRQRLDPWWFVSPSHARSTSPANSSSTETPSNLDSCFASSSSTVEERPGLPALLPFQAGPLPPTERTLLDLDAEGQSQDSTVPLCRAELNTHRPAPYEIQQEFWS
Sequence of NEK2 (human) (P51955 whole entry, looked up): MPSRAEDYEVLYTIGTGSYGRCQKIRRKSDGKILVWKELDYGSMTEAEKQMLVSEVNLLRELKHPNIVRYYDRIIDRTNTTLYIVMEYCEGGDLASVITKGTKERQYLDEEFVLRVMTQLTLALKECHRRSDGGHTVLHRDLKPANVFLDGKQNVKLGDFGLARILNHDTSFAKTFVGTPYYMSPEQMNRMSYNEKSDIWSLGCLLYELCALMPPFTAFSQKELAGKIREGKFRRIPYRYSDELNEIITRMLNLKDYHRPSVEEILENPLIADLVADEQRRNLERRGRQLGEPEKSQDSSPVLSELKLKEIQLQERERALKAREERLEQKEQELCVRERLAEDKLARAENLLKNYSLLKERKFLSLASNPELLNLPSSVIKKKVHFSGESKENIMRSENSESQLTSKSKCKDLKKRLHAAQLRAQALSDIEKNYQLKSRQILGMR

COc1ccc(N(C(=O)Nc2c(C)cccc2C)c2cc(Nc3ccc(N4CCN(C)CC4)cc3)ncn2)c(OC)c1 gave a residual activity (FGFR1 (human); compound 0.01 µM) of 102%, a residual activity (FGFR1 (human); compound 0.1 µM) of 34% and a residual activity (FGFR1 (human); compound 1.0 µM) of 2%. For the same molecule, the residual activity ([1]; compound 0.01 µM) was 83%, the residual activity ([1]; compound 0.1 µM) was 83% and the residual activity ([1]; compound 1.0 µM) was 75%. The residual activity (LCK (mouse); compound 0.01 µM) was 63%, the residual activity (LCK (mouse); compound 0.1 µM) was 54% and the residual activity (LCK (mouse); compound 1.0 µM) was 47%. It also gave a residual activity (PIM2 (human)) of 117%, a residual activity (PHKG1 (human); compound 0.01 µM) of 125% and a residual activity (PHKG1 (human); compound 0.1 µM) of 104%. For the same molecule, the residual activity (PHKG1 (human); compound 1.0 µM) was 107%, the residual activity (NEK2 (human); compound 0.01 µM) was 112% and the residual activity (NEK2 (human); compound 0.1 µM) was 93%. It also gave a residual activity (NEK2 (human); compound 1.0 µM) of 95%, a residual activity (NEK6 (human); compound 0.01 µM) of 102% and a residual activity (NEK6 (human); compound 0.1 µM) of 90%. It also gave a residual activity (NEK6 (human); compound 1.0 µM) of 91%, a residual activity (EPHA2 (human); compound 0.01 µM) of 51% and a residual activity (EPHA2 (human); compound 0.1 µM) of 15%. It also gave a residual activity (EPHA2 (human); compound 1.0 µM) of 6%, a residual activity ([2]; compound 0.01 µM) of 88% and a residual activity ([2]; compound 0.1 µM) of 99%. For the same molecule, the residual activity ([2]; compound 1.0 µM) was 93%, the residual activity (MKNK1 (human); compound 0.01 µM) was 109% and the residual activity (MKNK1 (human); compound 0.1 µM) was 116%. The residual activity (MKNK1 (human); compound 1.0 µM) was 112%, the residual activity (SYK (human); compound 0.01 µM) was 112% and the residual activity (SYK (human); compound 0.1 µM) was 104%. For the same molecule, the residual activity (SYK (human); compound 1.0 µM) was 100%, the residual activity (TBK1 (human); compound 0.01 µM) was 101% and the residual activity (TBK1 (human); compound 0.1 µM) was 91%. For the same molecule, the residual activity (TBK1 (human); compound 1.0 µM) was 91%, the residual activity (MAPK11 (human); compound 0.01 µM) was 89% and the residual activity (MAPK11 (human); compound 0.1 µM) was 42%. It also gave a residual activity (MAPK11 (human); compound 1.0 µM) of 19%, a residual activity ([3]; compound 0.01 µM) of 108% and a residual activity ([3]; compound 0.1 µM) of 106%. For the same molecule, the residual activity ([3]; compound 1.0 µM) was 96%, the residual activity (ROCK2 (rat); compound 0.01 µM) was 90% and the residual activity (ROCK2 (rat); compound 1.0 µM) was 68%. The residual activity (MAP3K9 (human); compound 0.01 µM) was 101%, the residual activity (MAP3K9 (human); compound 0.1 µM) was 97% and the residual activity (MAP3K9 (human); compound 1.0 µM) was 42%. The residual activity (SRPK1 (human); compound 0.01 µM) was 96%, the residual activity (SRPK1 (human); compound 0.1 µM) was 85% and the residual activity (SRPK1 (human); compound 1.0 µM) was 90%. The residual activity (TTK (human); compound 0.01 µM) was 100% and the residual activity (TTK (human); compound 0.1 µM) was 92%.
